# Laboratory results reported in US20250170085A1, “TOPICAL FORMULATION TO DECREASE SKIN INFLAMMATION OR REDNESS” (University of Pittsburgh - Of the Commonwealth System of …, priority 2022, published 2025).
# Legend:
# [1] = Patient-reported itching after facial application of 5% w/w β-alanine cream with menthol; type: in vivo, human
# Excerpt: (§1) FIGS. 2A and 2B show subjective patient-reported scoring for itch (FIG. 2A) and overall discomfort (FIG. 2B) of facially applied cream containing 5% w/w β-alanine and the indicated concentration of menthol. Each of the four formulations (0%, 0.5%, 1.0%, and 1.5% w/w menthol with 5% w/w f-alanine) were sequentially applied to different locations of a patient's cheek skin by a physician. Scoring was on a scale of 0 to 10, with 0 being no itch or discomfort and 10 being maximum itch or discomfort. Each symbol represents an individual patient (n=10). Bar height indicates the average value. Error bars represent +/−SEM. * P<0.05; ** P<0.01. P-values were calculated using a nonparametric ANOVA Kruskai-Wallis test.
# A cohort of patients without inflammatory skin conditions (n=10) was given four different topical formulations for facial application. All four formulations contained 5% w/w β-alanine in Versapro® Cream (see, e.g., Example 1), however, each contained a different concentration of menthol (0.0%, 0.5%, 1.0%, and 1.5% w/w). A physician sequentially applied 0.1 ml of each formulation to distinct areas of the cheek with a 10 minute pause between each application. Patients were asked to rate the degree of itching and overall discomfort on a scale of 0 (no itching) to 10 (maximal itching) over the course of 5 minutes. […]
# [2] = Patient-reported overall discomfort (eye irritation, cold sensation) after facial application of 5% w/w β-alanine cream with menthol; type: in vivo, human; details: for overall discomfort, scale 0 to 10: attributable to eye irritation and an unpleasant cold sensation
# Excerpt: as §1
# A cohort of patients without inflammatory skin conditions (n=10) was given four different topical formulations for facial application. All four formulations contained 5% w/w β-alanine in Versapro® Cream (see, e.g., Example 1), however, each contained a different concentration of menthol (0.0%, 0.5%, 1.0%, and 1.5% w/w). A physician sequentially applied 0.1 ml of each formulation to distinct areas of the cheek with a 10 minute pause between each application. Patients were asked to rate the degree of itching and overall discomfort on a scale of 0 (no itching) to 10 (maximal itching) over the course of 5 minutes. The same process was repeated for the 0.5%, 1.0% and 1.5% w/w menthol containing formulations.
# [3] = Method: The four β-alanine formulations (0%, 2.5%, 5.0%, and 7.5% w/w β-alanine) were sequentially applied to a different location of each patient's cheek skin by a physician. Subjective scoring for itch (0 (none) to 10 (maximum itch)) was recorded over a 5-minute period. Symbols on the bar graph represent individual patients (n=16). Bar height indicates the average value. […] P-values were calculated using a nonparametric ANOVA Kruskai-Wallis test.
# β-alanine powder (GNC, #369898) was mixed into Versapro® Cream at a concentration of 0%, 2.5%, 5.0% or 7.5% w/w. The ingredients of Versapro® Cream include water, aloe Barbadensis leaf juice, cyclopentasiloxane, disodium EDTA, emulsifying wax NF, ethylhexglyglycering, ethylhexyl stearate, phenoxyethanol, sorbitol, and tocopheryl acetate. The mixture was agitated until homogenous.
# A cohort of patients without skin disease were selected for testing (n=16). Each patient had 0.1 ml of cream applied to cheek skin by a physician. Over the course of 5 minutes, the patients reported the intensity of pruritus (itching) on a scale of 0 (no itching) to 10 (maximal itching). The process was repeated for all four formulations (0%, 2.5%, 5.0% or 7.5% w/w β-alanine) using different areas of cheek skin. The efficacy of topical J3-alanine was determined based on the development of pruritus.
# [4] = 0.5% w/w menthol in 5% w/w β-alanine cream
"intensity of pruritus (itching), scale 0 to 10 ([3]; 2.5% w/w β-alanine in Versapro Cream, 0.1 ml on cheek skin, over 5 minutes, patients without skin disease (n=16))",duration of pruritus triggered by topical cream ([3]; topical β-alanine cream on cheek skin),Structure (SMILES),"intensity of itching [1, 4]","degree of itching, scale 0 to 10 ([1]; all concentrations of menthol (0.5%, 1.0%, 1.5% w/w) in 5% w/w β-alanine Versapro Cream, 0.1 ml on cheek, over 5 minutes, n=10)","eye discomfort [2, 4]","overall discomfort, scale 0 to 10 ([2]; 1.0% w/w menthol in 5% w/w β-alanine cream)","overall discomfort, scale 0 to 10 ([2]; 1.5% w/w menthol in 5% w/w β-alanine cream)"
,,"CC1CCC(C(C)C)C(O)C1 (stereo not shown) [menthol, 5-methyl-2-(propan-2-yl)cyclohexan-1-ol]",successfully decreased,notably reduced,without promoting eye discomfort,increased,increased
evident,less than 5 minutes,"NCCC(=O)O [β-alanine, 3-aminopropanoic acid]",,,,,
